Where two headings read alike, the source gives them in different places.
Experiments:
tomato seedlings = assay: Tomato seedlings in pots sprayed 3 times: height, fresh and dry weight, chlorophyll (Example 3); assay type: in vivo; conditions: 80 mg/L, benzothiadiazole salt 30 mg/L
Source text: Tomato seedlings (12 according to development scale BBCH) were planted into pots with peat substrate (P9 pots having 0.5 l). Plant pots were placed in greenhouse and cultivated for a 1 and a half month. Plants were sprayed with tested substance 3 times, in 10-day interval. […] 2-methoxyethyl(trimethyl)-ammonium benzo[1,2,3]thiadiazole-7-carboxylate; 3. […] 2-methoxyethyl(trimethyl)ammonium 3-chlorosalicylate; 7. 2-ethoxyethyl(trimethyl)ammonium 3-chlorosalicylate; 8. ethyl(trimethyl)ammonium 3-chlorosalicylate at a concentration od 80 mg/l. Plants were sprayed with tested substances three times at 10-day intervals. Plants in peat substrate treated with water only were the control. During the course of the experiment, the height of the plants was measured, and at the end the fresh and dry weight of the aboveground part was evaluated. Moreover chlorophyll content was measured. The experiment was conducted in 4 repetitions with 5 plants in each (a total of 20 plants per each variant of treatment).

tomato = assay: Greenhouse tomato sprayed three times: yield, health-promoting substances, leaf chlorophyll (Example 2); assay type: in vivo; conditions: 80 mg/L, benzothiadiazole salt 30 mg/L, chitosan lactate 50 mg/L
Protocol: Biostimulant properties were evaluated for the following stimulants: […] The evaluation of stimulant properties included the influence of tested substances on tomato yield, content of health-promoting substances in yield and chlorophyll content in tomato leaves. […] The untreated control plants were sprayed with distilled water. During the experiment, total yield weight, commercial and non-commercial yield and average commercial fruit weight, number of fruits per plant and average fruit weight per plant were evaluated. […] Chlorophyll was measured before each treatment and one day after each treatment using Minolta's SPAD-502 chlorophyll meter.

lettuce = conditions: 3-chlorosalicylate 100 mg/L double application, benzothiadiazole salt 50 mg/L single application
Protocol: The purpose of the study was to determine the effect of foliar spraying with test solutions on lettuce plants (Lactuca sativa L. ‘Zeralda’) under abiotic stress conditions—low temperature. After 7 and 14 days after transplanting the plants to a permanent place, spraying of the plants was carried out. […] After another 7 days, low temperature stress was induced—plants were grown in three glass chambers with a day temperature of 22° C. and night temperatures of 4, 12 and 20° C. until harvest.

[1] = test system: apple trees (M9 rootstocks); conditions: 4 sprays at 14-day intervals; 3-chlorosalicylate 100 mg/L, benzothiadiazole salt 25 mg/L
Source text: Flowers were counted during the experiment, and the number of shoots and leaves in the fall.

winter rapeseed = conditions: for more aboveground dry matter compared to control: last harvest date, fully ripe
Source text: The experiment was established using the long strip method in four repetitions. The dimensions of the plots at establishment were 96 m^2 gross, while the harvestable area was 23.25 m^2 net.
In the experiment, uniform NPK fertilization was applied, using both bulk and liquid fertilizers.
The following facilities were included in the experiment: • 1. control, no stimulant application, standard fungicide protection • 2. stimulant applied at stage 31-32 according to the BBCH development scale, standard fungicide protection • 3. stimulant applied at stage 53-55 according to the BBCH development scale, no fungicide protection

tulip = assay: Tulip bulbs in peat watered with working solution: height, stem diameter, weights, root length, flowering, vigor (Example 1); assay type: in vivo; conditions: 80 mg/L, benzothiadiazole salt 30 mg/L
Protocol: Control plants were watered with distilled water. During the conducted experiment, plant height was measured before each treatment. Flowering length and plant vigor were also studied. After 20 days from the end of the last treatment, the fresh and dry weight of aboveground parts and roots, and root length were assessed.

[2] = BBCH 32, standard fungicide protection, 80 mg/L, benzothiadiazole salt 25 mg/L
[3] = BBCH 32, stimulant only, 80 mg/L, benzothiadiazole salt 25 mg/L
[4] = BBCH 55, standard fungicide protection, 80 mg/L, benzothiadiazole salt 25 mg/L
[5] = BBCH 55, without fungicide, 80 mg/L, benzothiadiazole salt 25 mg/L
[6] = first sampling date, stimulant at BBCH 31-32, no fungicide yet, 80 mg/L, benzothiadiazole salt 25 mg/L
[7] = second date, regardless of cultivation technology, 80 mg/L, benzothiadiazole salt 25 mg/L
[8] = Table 2, 20 days after last treatment
[9] = Table 3 (title: tulip bulbs / root system)

C[N+](C)(C)CCO.O=C([O-])c1cccc2nnsc12
Average plant height, before second treatment (tomato seedlings; chitosan lactate 50 mg/l): 146.7 b mm | Average plant height, before third treatment (tomato seedlings; chitosan lactate 50 mg/l): 337.1 b mm | Average plant height, initial height, before first treatment (tomato seedlings; chitosan lactate 50 mg/l): 60.5 a mm | Chlorophyll content (SPAD), a day after treatment #1 (tomato seedlings; chitosan lactate 50 mg/l): 76.1 b | Chlorophyll content (SPAD), a day after treatment #2 (tomato seedlings; chitosan lactate 50 mg/l): 81.3 c | Chlorophyll content (SPAD), a day after treatment #3 (tomato seedlings; chitosan lactate 50 mg/l): 78.2 b | Plant height increase (tomato seedlings; chitosan lactate 50 mg/l): 276.6 b mm | Average dry mass (tomato seedlings; above-ground part): 87.5 b g | Average fresh mass (tomato seedlings; above-ground part): 333.5 b g | Chlorophyll content (SPAD), Treatment #1 (tomato seedlings; before treatment #1, chitosan lactate 50 mg/l): 49.6 a | Chlorophyll content (SPAD), Treatment #2 (tomato seedlings; before treatment #2, chitosan lactate 50 mg/l): 47.5 a | Chlorophyll content (SPAD), Treatment #3 (tomato seedlings; before treatment #3, chitosan lactate 50 mg/l): 50.1 a | Chlorophyll content (SPAD), a day after treatment #1 (tomato): 63.5 b | Chlorophyll content (SPAD), a day after treatment #2 (tomato): 61.3 b | Chlorophyll content (SPAD), a day after treatment #3 (tomato): 63.2 b | Chlorophyll content (SPAD), Treatment #1 (tomato; before treatment #1): 51.2 a | Chlorophyll content (SPAD), Treatment #2 (tomato; before treatment #2): 51.4 a | Chlorophyll content (SPAD), Treatment #3 (tomato; before treatment #3): 51.1 a | Average fruit weight per plant (tomato; spray 3x): 148.70 b g | Average weight of marketable fruit (tomato; spray 3x): 26.13 b kg/m^2 | Commercial yield (tomato; spray 3x): 18.13 b kg/m^2 | Number of fruits per plant (tomato; spray 3x): 4.17 b | Total yield (tomato; spray 3x): 18.83 b kg/m^2 | Calcium (tomato; tomato fruits): 91.4 a mg/kg | Lycopene (tomato; tomato fruits): 36.5 b mg/kg | Magnesium (tomato; tomato fruits): 106.3 b mg/kg | Vit. C (tomato; tomato fruits): 200.1 c mg/kg | Vit. E (tomato; tomato fruits): 25.9 b mg/kg | °Brix (sugar content of the liquid expressed in degree of Brix) (tomato; tomato fruits): 5.92 b g | Head weight, 4° C. (lettuce; night temperature 4° C.): 47.6 b g/plant | Head weight, 12° C. (lettuce; night temperature 12° C.): 54.9 b c g/plant | Head weight, 20° C. (lettuce; night temperature 20° C.): 65.1 b g/plant | Average number of flowers per plant [1]: 31.1 b | Average number of leaves per plant [1]: 47.1 b | Average number of shoots per plant [1]: 6.5 b | increase in calcium uptake (winter rapeseed; [2]): 5% | increase in magnesium uptake (winter rapeseed; [2]): 5% | increase in nitrogen uptake (winter rapeseed; [2]): 5% | increase in phosphorus uptake (winter rapeseed; [2]): 5% | increase in potassium uptake (winter rapeseed; [2]): 6% | increase in calcium uptake (winter rapeseed; [3]): 9% | increase in magnesium uptake (winter rapeseed; [3]): 11% | increase in nitrogen uptake (winter rapeseed; [3]): 8% | increase in phosphorus uptake (winter rapeseed; [3]): 9% | increase in potassium uptake (winter rapeseed; [3]): 7% | higher fat content (winter rapeseed; BBCH 32, with fungicide, 80 mg/L, benzothiadiazole salt 25 mg/L): 6% | higher fat content (winter rapeseed; BBCH 32, without fungicide, 80 mg/L, benzothiadiazole salt 25 mg/L): 8% | increase in calcium uptake (winter rapeseed; [4]): 10% | increase in fat content (winter rapeseed; [4]): 6% | increase in magnesium uptake (winter rapeseed; [4]): 9% | increase in nitrogen uptake (winter rapeseed; [4]): 9% | increase in phosphorus uptake (winter rapeseed; [4]): 11% | increase in potassium uptake (winter rapeseed; [4]): 8% | increase in calcium uptake (winter rapeseed; [5]): 9% | increase in fat content (winter rapeseed; [5]): increase | increase in magnesium uptake (winter rapeseed; [5]): 13% | increase in nitrogen uptake (winter rapeseed; [5]): 12% | increase in phosphorus uptake (winter rapeseed; [5]): 9% | increase in potassium uptake (winter rapeseed; [5]): 8% | seed yields higher compared to control (winter rapeseed; both fungicide and stimulant treatments, 80 mg/L, benzothiadiazole salt 25 mg/L): 12% | chlorophyll content, differences between the tested objects (winter rapeseed; first measurement date): no differences were observed | more biomass (dry weight) compared to control (winter rapeseed; [6]): 29% | more biomass (fresh weight) compared to control (winter rapeseed; [6]): 28% | more aboveground dry matter compared to control (winter rapeseed; only the stimulant, 80 mg/L, benzothiadiazole salt 25 mg/L): 32% | more aboveground dry matter compared to control (winter rapeseed; with fungicide protection, 80 mg/L, benzothiadiazole salt 25 mg/L): 38% | more dry weight compared to control, on average (winter rapeseed; [7]): 26% | more fresh weight compared to control, on average (winter rapeseed; [7]): 24% | weight of one thousand seeds higher compared to control (winter rapeseed; tested combinations, 80 mg/L, benzothiadiazole salt 25 mg/L): 12% | more chlorophyll in the leaves (SPAD) compared to control (winter rapeseed; with a fungicide, printed 'first date' (of second and third measurement dates), 80 mg/L, benzothiadiazole salt 25 mg/L): 6% | more chlorophyll in the leaves (SPAD) compared to control (winter rapeseed; with a fungicide, printed 'second date', 80 mg/L, benzothiadiazole salt 25 mg/L): 8% | more chlorophyll in the leaves (SPAD) compared to control (winter rapeseed; without a fungicide, printed 'first date', 80 mg/L, benzothiadiazole salt 25 mg/L): 8% | more chlorophyll in the leaves (SPAD) compared to control (winter rapeseed; without a fungicide, printed 'second date', 80 mg/L, benzothiadiazole salt 25 mg/L): 12% | seed yields higher compared to control (winter rapeseed; without fungicide protection, stimulant at BBCH 31-32, 80 mg/L, benzothiadiazole salt 25 mg/L): 9% | Average stem diameter at the end of the experiment 20 days after the 4th treatment (tulip): 8.3 b mm | Flowering length (tulip): 23 days | Root length (tulip): 84.7 b mm | Vigor [on a scale from 1 to 5] (tulip; 1 is a laying plant, 5 is a stiff plant): 4.9 b | Average dry weight of the above-ground part (tulip; [8]): 44.1 b g | Average fresh weight of the above-ground part (tulip; [8]): 435.7 b g | Average dry weight of the above-ground part (tulip; [9]): 5.7 b g | Average fresh weight of the above-ground part (tulip; [9]): 61.0 b g | Average plant height, initial height, first treatment (tulip; before 1st watering): 46.4 a mm | Average plant height, second treatment (tulip; before 2nd watering): 133.6 b mm | Average plant height, third treatment (tulip; before 3rd watering): 271.2 b mm | Average plant height, fourth treatment (tulip; before 4th watering): 375.6 b mm | Average plant height, 20 days after the 4th treatment (tulip; end of experiment): 518.0 b mm

From patent US20260041093A1, “Ionic Derivatives Of Aromatic Carboxylic Acid For Use As Plant Stimulants, Method For Stimulating Plants And Use Of These Derivatives For Manufacturing Compositions For Stimulating Plants” (FUNDACJA UNIWERSYTETU IM. ADAMA MICKIEWICZA W POZNANIU, priority 2022, published 2026)
